Assays:
Type in all cases: in vivo, human
[1] = test system: patients with T2DM who have inadequate glycemic control; assay: Phase 2 clinical study NCT03131687 (26 weeks): patients reaching HbA1c target
Method: (§1) Clinical Study (NCT03131687) Supporting Maintenance Dose Embodiments A 6-month (26-week) Phase 2 double-blind clinical study is designed to evaluate the safety, efficacy, and PK/PD of 4 dose levels (1 mg, 5 mg, 10 mg and 15 mg respectively) of tirzepatide once weekly by subcutaneous injection compared with dulaglutide 1.5 mg. once weekly (QW) and placebo QW in patients with T2DM who have inadequate glycemic control with diet and exercise with or without a stable dose of metformin. Tirzepatide dose is up-titrated to the maintenance dose using the following weekly dose increments:
(§2) The study also has a 4-week follow up period. In addition to safety and efficacy for treating T2DM, efficacy endpoints include the effect of tirzepatide on HbA1c, FBG, body weight, lipids, and waist circumference compared with placebo and with dulaglutide 1.5 mg. The study also evaluates the effect of tirzepatide on GI tolerability, hypoglycemia, hypersensitivity reactions, and pancreatic safety, as well as the development of treatment-emergent anti-drug antibodies. Model-based dose response analyses are performed to predict potential for significant HbA1c lowering and weight loss in longer studies. Statistical Analyses: Efficacy: The primary efficacy outcome of HbA1c change from baseline to the 26-week endpoint is analyzed using a Bayesian dose-response model. Analyses are performed on the intention to treat population (mITT) analysis set. Supportive analysis of the primary efficacy outcome for the mITT dataset are the model for post-baseline measures (MMRM) with body mass index (BMI) (<30 kg/m^2, ≥30 kg/m^2), metformin use, treatment, visit, and treatment-by-visit interaction as fixed effects, baseline HbA1c as a covariate, and patient as a random effect. The mean weight change from baseline at 12 and 26 weeks, along with the mean change from baseline of HbA1c at 12 weeks, is analyzed using similar dose-response models as the primary analyses. The percentages of patients with ≥5% or ≥10% body weight loss, reaching the HbA1c target of ≤6.5% or ≤7.0% at 26 weeks, or requiring rescue therapy are analyzed using logistic regression with fixed effects of treatment and strata, and baseline as a covariate. The changes from baseline in FBG (fasting blood glucose), SMBG (self-monitored blood glucose) levels, waist circumference, and mean percentage change in lipids from baseline to 12 and 26 weeks are analyzed using a similar MMRM to the one used for the primary analyses. Table Abbreviations: Dula 1.5 mg=dulaglutide 1.5 mg once weekly; LY means tirzepatide, and LY 1 mg=tirzepatide 1 mg once weekly; LY 5 mg=5 mg once weekly; LY 10 mg=escalation dose group tirzepatide once weekly with highest dose of 10 mg; LY 15 mg=escalation dose group of tirzepatide once weekly with highest dose 15 mg; LOCF=last observation-carried-forward; N=number of patients; pbo=placebo; Week 26=mITT on-treatment data at Week 26 excluding data after study drug discontinuation or rescue drug initiation; mITT=modified intent-to-treat; SD=standard deviation. For Table 4, n=number of patients in the population with baseline and post-baseline value at the specified time point. For Table 6, LY10 mg=escalation dose group tirzepatide, once weekly with highest dose of 10 mg; escalation dose: (5 mg weeks 0 and 1), LY15 mg=escalation dose group tirzepatide, once weekly with highest dose of 15 mg; escalation dose: (5 mg weeks 0 and 1; 10 mg weeks 2 to 5); N=number of patients in specified group, m=number of patients who experienced new event during interval, FolUp=follow up, T/Wk=Time range, (week) and %=means percent patients spending at least some time in treatment group who experienced new event during interval. For Table 7, n is the number of patients with events meeting the criteria; N is number of patients in the population; % is percent of patients in treatment group experiencing the event.

[2] = NCT03131687: decrease appetite (reported event)
Method: as §1, §2

[3] = test system: patients with type 2 diabetes who have inadequate glycemic control; assay: Phase 2 clinical study NCT03311724 (12 weeks, escalation schemes): patients reaching HbA1c target
Source text: This is a 12-week treatment with a 1 week screening (Visit 1) followed by a 1 week lead-in (Visit 2), then 12 weeks of treatment (Visits 3-10, including telephone visits), then followed by 4-week safety follow-up. It is a Phase 2 study designed to examine the efficacy and tolerability of subcutaneously once-weekly tirzepatide compared with placebo in patients with type 2 diabetes who have inadequate glycemic control with diet and exercise alone or with a stable dose of metformin. The study was designed per below and conducted to refine the escalation scheme.

patients with T2DM = assay: Biomarkers measured in clinical studies (eGFR, triglyceride)
Method: Clinically relevant biomarkers are measured in clinical studies to further support the use of tirzepatide for treating chronic kidney disease. […] Clinical study laboratory measurements support the use of tirzepatide in the treatment of chronic kidney disease. Clinically relevant biomarkers are measured to assess and support the use of tirzepatide in the treatment of atherosclerosis. Clinically relevant triglyceride levels decrease in all tirzepatide treatment groups. Clinical observations support that tirezepatide can be beneficial for use in the treatment of atherosclerosis.

[4] = LY 5 mg = tirzepatide 5 mg once weekly, LOCF Week 26 (N = 55)
[5] = LY 5 mg = tirzepatide 5 mg once weekly, mITT Week 26 (N = 48)
[6] = LY 10 mg = tirzepatide once weekly, escalation to highest dose 10 mg, LOCF Week 26 (N = 51)
[7] = LY 10 mg = tirzepatide once weekly, escalation to highest dose 10 mg, mITT Week 26 (N = 44)
[8] = LY 15 mg = tirzepatide once weekly, escalation to highest dose 15 mg, LOCF Week 26 (N = 53)
[9] = LY 15 mg = tirzepatide once weekly, escalation to highest dose 15 mg, mITT Week 26 (N = 35)
[10] = LY1 mg = tirzepatide 1 mg once weekly, N = 52
[11] = LY5 mg = tirzepatide 5 mg once weekly, N = 55
[12] = LY10 mg = tirzepatide once weekly, highest dose 10 mg, N = 51
[13] = LY15 mg = tirzepatide once weekly, highest dose 15 mg, N = 53
[14] = LY 12 mg Group 3 (tirzepatide 4 mg × 4, 8 mg × 4, 12 mg × 4 once weekly), LOCF Week 12 (N = 28)
[15] = LY 12 mg Group 3 (tirzepatide 4 mg × 4, 8 mg × 4, 12 mg × 4 once weekly), Week 12 mITT on-treatment (N = 27)
[16] = LY 15 mg-Group 1 (tirzepatide 2.5 mg × 2, 5 mg × 2, 10 mg × 4, 15 mg × 4 once weekly), LOCF Week 12 (N = 28)
[17] = LY 15 mg-Group 1 (tirzepatide 2.5 mg × 2, 5 mg × 2, 10 mg × 4, 15 mg × 4 once weekly), Week 12 mITT on-treatment (N = 23)
[18] = LY 15 mg-Group 2 (tirzepatide 2.5 mg × 4, 7.5 mg × 4, 15 mg × 4 once weekly), LOCF Week 12 (N = 27)
[19] = LY 15 mg-Group 2 (tirzepatide 2.5 mg × 4, 7.5 mg × 4, 15 mg × 4 once weekly), Week 12 mITT on-treatment (N = 26)

tirzepatide [LY]
HbA1c change from baseline (in words) ([1]; 5 mg, 10 mg, and 15 mg doses of tirzepatide, significantly different from placebo and from dulaglutide 1.5 mg): significantly decrease HbA1c from baseline | % of Patients Reaching HbA1c Target <5.7% [1, 4]: 3.6% | % of Patients Reaching HbA1c Target <6% [1, 4]: 25.5% | odds ratio vs. placebo, Patients Reaching HbA1c Target <5.7% [1, 4]: 1.6 | odds ratio vs. placebo, Patients Reaching HbA1c Target <6% [1, 4]: 11.8 | % of Patients Reaching HbA1c Target <5.7% [1, 5]: 4.3% | % of Patients Reaching HbA1c Target <6% [1, 5]: 23.4% | odds ratio vs. placebo, Patients Reaching HbA1c Target <5.7% [1, 5]: 1.7 | odds ratio vs. placebo, Patients Reaching HbA1c Target <6% [1, 5]: 10.5 | % of Patients Reaching HbA1c Target <5.7% [1, 6]: 18.0% | % of Patients Reaching HbA1c Target <6% [1, 6]: 46.0% | odds ratio vs. placebo, Patients Reaching HbA1c Target <5.7% [1, 6]: 7.8 | odds ratio vs. placebo, Patients Reaching HbA1c Target <6% [1, 6]: 28.7 | % of Patients Reaching HbA1c Target <5.7% [1, 7]: 20.9% | % of Patients Reaching HbA1c Target <6% [1, 7]: 51.2% | odds ratio vs. placebo, Patients Reaching HbA1c Target <5.7% [1, 7]: 7.9 | odds ratio vs. placebo, Patients Reaching HbA1c Target <6% [1, 7]: 34.5 | % of Patients Reaching HbA1c Target <5.7% [1, 8]: 30.2% | % of Patients Reaching HbA1c Target <6% [1, 8]: 37.7% | odds ratio vs. placebo, Patients Reaching HbA1c Target <5.7% [1, 8]: 14.4 | odds ratio vs. placebo, Patients Reaching HbA1c Target <6% [1, 8]: 22.0 | % of Patients Reaching HbA1c Target <5.7% [1, 9]: 42.9% | % of Patients Reaching HbA1c Target <6% [1, 9]: 54.3% | odds ratio vs. placebo, Patients Reaching HbA1c Target <5.7% [1, 9]: 26.6 | odds ratio vs. placebo, Patients Reaching HbA1c Target <6% [1, 9]: 48.7 | Decrease Appetite (reported): n, number of patients with events [2, 10]: n = 2; | Decrease Appetite (reported): percent of patients in treatment group experiencing the event [2, 10]: 3.8% | Decrease Appetite (reported): n, number of patients with events [2, 11]: n = 10; | Decrease Appetite (reported): percent of patients in treatment group experiencing the event [2, 11]: 18.2% | Decrease Appetite (reported): n, number of patients with events [2, 12]: n = 13; | Decrease Appetite (reported): percent of patients in treatment group experiencing the event [2, 12]: 25.5% | Decrease Appetite (reported): n, number of patients with events [2, 13]: n = 10; | Decrease Appetite (reported): percent of patients in treatment group experiencing the event [2, 13]: 18.9% | placebo-adjusted changes from baseline in HbA1c (in words) ([3]; 12-mg and 15-mg tirzepatide doses, after 12 weeks of treatment, including an 8-week escalation period): statistically significant and clinically relevant | % of Patients Reaching HbA1c Target <5.7% [3, 14]: 3.6% | % of Patients Reaching HbA1c Target <7% [3, 14]: 71.4% | odds ratio vs. placebo, Patients Reaching HbA1c Target <5.7% [3, 14]: 2.8 | odds ratio vs. placebo, Patients Reaching HbA1c Target <7% [3, 14]: 16.1 | % of Patients Reaching HbA1c Target <5.7% [3, 15]: 3.7% | % of Patients Reaching HbA1c Target <7% [3, 15]: 74.1% | odds ratio vs. placebo, Patients Reaching HbA1c Target <5.7% [3, 15]: 2.5 | odds ratio vs. placebo, Patients Reaching HbA1c Target <7% [3, 15]: 56.5 | % of Patients Reaching HbA1c Target <5.7% [3, 16]: 3.6% | % of Patients Reaching HbA1c Target <7% [3, 16]: 78.6% | odds ratio vs. placebo, Patients Reaching HbA1c Target <5.7% [3, 16]: 2.9 | odds ratio vs. placebo, Patients Reaching HbA1c Target <7% [3, 16]: 25.1 | % of Patients Reaching HbA1c Target <5.7% [3, 17]: 4.3% | % of Patients Reaching HbA1c Target <7% [3, 17]: 87.0% | odds ratio vs. placebo, Patients Reaching HbA1c Target <5.7% [3, 17]: 3.1 | odds ratio vs. placebo, Patients Reaching HbA1c Target <7% [3, 17]: 183.5 | % of Patients Reaching HbA1c Target <5.7% [3, 18]: 7.4% | % of Patients Reaching HbA1c Target <7% [3, 18]: 85.2% | odds ratio vs. placebo, Patients Reaching HbA1c Target <5.7% [3, 18]: 5.0 | odds ratio vs. placebo, Patients Reaching HbA1c Target <7% [3, 18]: 37.9 | % of Patients Reaching HbA1c Target <5.7% [3, 19]: 7.7% | % of Patients Reaching HbA1c Target <7% [3, 19]: 84.6% | odds ratio vs. placebo, Patients Reaching HbA1c Target <5.7% [3, 19]: 4.6 | odds ratio vs. placebo, Patients Reaching HbA1c Target <7% [3, 19]: 157.5 | triglyceride levels (in words) (patients with T2DM; all tirzepatide treatment groups): decrease | eGFR (in words) (patients with T2DM; study NCT03131687, at any dosage): no decrease in eGFR was observed

Reference: patent US12616740B2, “Methods of using a GIP/GLP1 co-agonist for therapy” (ELI LILLY AND COMPANY, priority 2018, dated 2026)
